For data set [1], the system named is patients with gout. Conditions: cited from earlier work; for Sudden cardiac death, share of group: patients with gout, per treatment group.
The test system of data set [2] is rats with hyperuricemia induced by potassium oxonate. Description: Treatment of hyperuricemia in rats induced by potassium oxonate, serum uric acid. It is filed as in vivo, SD rat. Conditions: for Uric acid 1 h: 1 h after potassium oxonate; for Uric acid 3 h: 3 h after potassium oxonate; for Uric acid 5 h: 5 h after potassium oxonate; for Uric acid 0 h: before potassium oxonate injection; for Serum uric acid level compared with model group: 1 and 2 mg/kg groups, at 1, 3 and 5 h after model establishment. As to the method: Compounds 15, 24 and 38 were white powder, and compound 57 was light yellow powder, which was ground with 0.5% CMC-Na before use and prepared into suspension with corresponding concentrations (0.2 and 0.4 mg/mL) for gavage.
SD rat, SPF grade, male, weighing 180-220 g, purchased from Shanghai Slake Experimental Animal Co., Ltd., production license number: SCXK (Hu) 2017-0005, quality certificate number: 20170005050604.
72 SD rats, male, weighed about 200-230 g after one week of acclimatization. […] Drugs for each group were prepared into suspension with corresponding concentration, and the administration volume was 0.5 mL/100 g.
After purchased and fed for acclimatization, the rats in each group were fasted for 12 h, and the model was established by intraperitoneal injection with potassium oxonate at the dose of 300 mg/kg, and each of the test drug groups were administrated once by gavage after model establishment. Blood samples were collected from posterior orbital venous plexus before and 1, 3 and 5 h after potassium oxonate injection, centrifugated at 3500 rpm for 10 min, and 30 μL serum was taken to determine uric acid levels at each time point.
Then in two consecutive days, rat models were established with potassium oxonate by intraperitoneal injection at a dose of 300 mg/kg every day, and each test drug group was administrated once by gavage after model establishment. On the third day of administration, the rats were fasted for 12 h, and with the same test method on the first day, blood samples were collected from the posterior orbital venous plexus before and 1, 3 and 5 h after potassium oxonate injection, centrifuged at 3500 rpm for 10 min, and 30 μL serum was taken to determine the uric acid level at each time point.
The measurement data of each experiment were expressed as (mean)±s (standard deviation). ANOVA-Dunnett T test was used to investigate the significance between groups, and P<0.05 was used as a significant index, P<0.01 was used as a very significant index.

Data set [3] has as its system subjects. The note with it: allopurinol used at maximum doses; cited from earlier work.
Setting [4] is: 1-day administration, 1 mg/kg gavage.
The mark [5] stands for this setting: 1-day administration, 2 mg/kg gavage.
The mark [6] stands for this setting: 3-day administration, 1 mg/kg gavage.
Setting [7] is: 3-day administration, 2 mg/kg gavage.

For `Cc1nc(-c2ccc(OCC(C)C)c(C#N)c2)sc1C(=O)O` [Febuxostat, reference compound], the “All-cause mortality, HR” value in data set [1] (febuxostat vs allopurinol group, 95% CI 1.01-1.47) was 1.22. Also, the “Cardiovascular mortality, HR” value in data set [1] (febuxostat vs allopurinol group, 95% CI 1.03-1.73) was 1.34. Moreover, in data set [1] (febuxostat vs allopurinol group, average of 32 months of treatment, 95% CI 0.87-1.23), the “Overall risk of adverse cardiovascular events, HR” value is given as 1.03. Moreover, in data set [1], the “Sudden cardiac death, share of group” value was 2.7%. Besides, the “Uric acid 1 h” value in data set [2] (setting [4]) stood at 76.4 ± 11.4 µmol/L; in data set [2] (setting [5]), 59.7 ± 6.6 µmol/L; in data set [2] (setting [6]) it was 53.0 ± 12.0 µmol/L; in data set [2] (setting [7]), 47.5 ± 7.9 µmol/L. Further, the “Uric acid 3 h” value in data set [2] (setting [4]) was found to be 91.3 ± 13.3 µmol/L; in data set [2] (setting [5]), 60.7 ± 15.0 µmol/L; in data set [2] (setting [6]) it was 71.4 ± 23.5 µmol/L; in data set [2] (setting [7]), 51.8 ± 6.7 µmol/L. The “Uric acid 5 h” value was 65.7 ± 12.4 µmol/L in data set [2] (setting [4]) and 61.1 ± 8.1 µmol/L in data set [2] (setting [6]). Further, the “Uric acid 0 h” value in data set [2] (setting [4]) is 81.3 ± 7.8 µmol/L; in data set [2] (setting [5]), 67.2 ± 1.9 µmol/L; in data set [2] (setting [6]), 66.0 ± 11.3 µmol/L; in data set [2] (setting [7]), 65.5 ± 8.8 µmol/L. For the same compound, the “Serum uric acid level compared with model group” value in data set [2] (1-day administration) and in data set [2] (3-day administration) was “significantly decreased” in each case.
On to `Oc1ncnc2[nH]ncc12` [allopurinol, Allopurinol], for which the “Sudden cardiac death, share of group” value in data set [1] is listed as 1.8%. The “Subjects reaching the treatment endpoint” value in data set [3] was “less than 50%”.
